Measured values: USRE38723E1, “Haloalkyl derivatives of reporter molecules used to analyze metabolic activity in cells” (Molecular Probes, Inc., priority 1991, dated 2005)

Assays:
[1] = test system: lacZ positive CRE BAG 2 cells; test: Staining of living lacZ positive cells with galactosidase substrate (Example 11); type: cell-based
Protocol: (§1) NIH/3T3 cells (lacZ negative) and CRE BAG 2 cells (3T3 cells transformed with a retrovirus containing lacZ gene) are employed for cellular assays. Both cell lines can be obtained from American Type Culture Collection Co., Rockville, Md. The cells are grown in a humidified atmosphere of 5% CO2 in Dulbecco's modified Eagle's medium supplemented with 10% calf serum, 50 μg/mL gentamicin, 300 μg/mL L-glutamine and 10 mM HEPES pH 7.4.
(§2) 4-Chloromethylumbelliferyl β-D-galactoside (Cl-MUG) (Example 3) is dissolved in DMSO to get a 10 mM stock solution. A 10 mM stock solution of 4-methylumbelliferyl β-D-galactoside (MUG) (Molecular Probes) is also made in DMSO as a control. The stock solutions are kept sealed in brown reagent bottles and stored at −20° C.
(§3) 100 μL of stock solution is added to 10 mL of fresh culture medium to prepare a “working medium” containing 100 μM Cl-MUG. This medium is filter-sterilized by passing through an Acrodisc™ filter (0.45 μm pore size). A working medium containing MUG is prepared in the same way.
(§4) Cells grown on coverslips are transferred to the working medium and incubated at 37° C. under normal conditions. Cells are examined at the desired time for their fluorescence under a Zeiss microscope equipped with a Hoechst filter set (EX […]/EM 480 nm). […] After 6 hours continuous incubation, the fluorescence intensity of stained CRE BAG 2 cells reaches its highest level.

[2] = test system: NIH/3T3 cells (lacZ negative); test: Staining of living lacZ negative cells with galactosidase substrate (Example 11); type: cell-based; settings: 100 μM in working medium, 60 minutes at 37° C., washed with fresh medium
Protocol: as §1, §2, §3, §4

[3] = test system: NIH/3T3 cells and CRE BAG 2 cells; test: Cytotoxicity of substrate in working medium (Example 11); type: cell-based
Protocol: as §1, §3
Fluorescence can be detected in the cells for at least 24 hours following washing of the cells with fresh medium.

[4] = test system: lacZ positive cells; test: Dye retention after paraformaldehyde fixation (Example 11); type: cell-based; settings: 3.7% paraformaldehyde fixation, Hoechst filter set
Protocol: The cells grown on coverslips and incubated with either Cl-MUG or MUG are immersed in 3.7% paraformaldehyde in 80 mM Pipes buffer, pH 6.5 for 4 minutes to allow the paraformaldehyde to penetrate the cells. The cells are then transferred to 3.7% paraformaldehyde in PBS. After 6 minutes, the cells are washed three times with PBS buffer for ten minutes. The coverslips are put on the slides and sealed.
The fixed cells are examined for their fluorescence under a Zeiss microscope equipped with a Hoechst filter set.

[5] = test system: CRE-BAG2 cells expressing β-galactosidase; test: Cellular retention of coumarin galactopyranoside substrates (Example 17); type: cell-based; settings: 10 μM, hypotonic shock loading, 37° C., excitation 360±20 nm, emission >400 nm
Protocol: CRE-BAG2 cells are prepared as described in Example 15.
Staining solutions of 4-methylcoumarin β-D-galactopyranoside, 4-chloromethylcoumarin β-D-galactopyranoside and 4-trifluoromethylcoumarin β-D-galactopyranoside, respectively, are prepared that are 10 μM in concentration. Each galactopyranoside substrate is loaded into CRE-BAG2 cells expressing β-galactosidase using brief hypotonic shock for less than five minutes. Cells are then washed free of extracellular substrate and incubated for three hours in fresh culture medium at 37° C. Each cell sample is then illuminated at 360±20 nm, and the fluorescence is observed at >400 nm. Fluorescence intensity data is acquired using a cooled CCD camera and subsequently stored in digital format.

[6] = test system: Glutathione Transferase from Equine Liver; test: Glutathione transferase activity in vitro (Example 14); type: biochemical; settings: room temperature, with GSH
Protocol: Activity of glutathione transferase in vitro can be assayed essentially by the method of Grants and Matsumura (INSECT PHYSIOL. 18 (6), 615 (1988)). • 1) Reagents: The stock reagents required are: 1) 5-Chloromethylfluorescein (CMF) substrate (Example 1) 10 mg/mL in DMF, diluted 1:10 in reaction buffer to 1 mg/mL; 2). Reaction buffer 100 mM potassium phosphate, 15% glycerol pH 6.8; 3). Glutathione (GSH) 155 mM in 20 mM TRIS, 2 mM DTT, 15% glycerol pH 7.8; 4). Glutathione Transferase from Equine Liver (Sigma #G 6511) 1.0 mg/mL in reaction buffer. • 2) Assay. The reaction mixture consists of 0.7 mL reaction buffer, 0.1 mL GSH, 0.1 mL substrate and 0.1 mL enzyme. The background is measured and subtracted by using 0.1 mL of the reaction buffer instead of the enzyme. Enzymatic activity can be detected at less than 5 minutes at room temperature. Product formation can be detected by separation of the polar product from the less polar substrate by a suitable means such as thin layer chromatography or high performance liquid chromatography. For instance, product accumulation can be detected by thin layer chromatography using A) 15:85 methanol:chloroform or B) 2:5:15 NH4OH:isopropyl alcohol:methanol. […] Alternatively the fluorescence of the product is determined using a fluorometer versus a fluorescein standard with excitation at 492 and emission measured at 515 nm. […]

[7] = test system: NIH/3T3 cells; test: Cellular retention of rhodamine 110 peptidase substrates (Example 16); type: cell-based; settings: 25 μM; for leakage of enzyme reaction product after staining: 30 minutes at 37° C.; for fluorescence after washing and several hours in fresh media: fluorescein long-pass filter set
Protocol: NIH/3T3 cells are prepared as described in Example 15.
Staining solutions of bis-(L-leucine)-rhodamine 110 and L-leucine-rhodamine 110-p-chloromethylbenzamide (Example 9), respectively, are prepared that are 25 μM in concentration. Equivalent NIH/3T3 cells are incubated with the same amount of peptidase substrate for thirty (30) minutes at 37° C. in Modified Tyrode's buffered saline (135 mM NaCl, 5 mM KCl, 1 mM MgCl2, 1.8 mM CaCl2, 10 mM NaHEPES, 5.6 mM glucose, pH 7.5, plus 0.1% bovine serum albumin).
The cells are washed and placed in fresh media for several hours.

[8] = test system: lacZ positive CRE BAG 2 cells; test: Cellular retention after loading by hypoosmotic shock (Example 12); type: cell-based; settings: after incubation for 4 hours, 2 mM
Protocol: 5-Chloromethylfluorescein di-β-D-galactoside (CMFDG) (Example 1) is dissolved in DMSO to get 20 mM stock solution. A 40 mM stock solution offluorescein di-β-D-galaetoside (FDG) (Molecular Probes) is also made in DMSO as a control. The stock solutions are kept sealed in brown reagent bottles and stored at −20° C.
• (A) FCS-PBS Solution: Phosphate buffered saline (GIBCO), 4% fetal calf serum, 10 mM HEPES, pH 7.2 • (B) Staining Solution: CMFDG: 200 μL of stock solution is diluted with distilled water to 4 mL to get a 1 mM staining solution. FDG: 400 μL of stock solution is diluted to 4 mL with distilled water to get a 4 mM staining solution. 4. Staining and Examination of Cells:
Cells grown on coverslips are transferred to a Petri dish containing 3 mL of FCS-PBS solution and then incubated at 37° C. for 10 minutes. 3 mL of prewarmed (37° C.) 1 mM CMFDG staining solution is added to give a final dye concentration of 0.5 mM The solutions are mixed rapidly. The cells are incubated at 37° C. for exactly one minute. To stop the loading, the cells are transferred to a 1.8 mL of ice-cold FCS-PBS solution. FDG is loaded into cells by using the same procedure except that the final dye concentrations is 2 mM. Cells are then incubated under normal culture conditions to examine the dye retention. Cells are examined without washing at the desired time for their fluorescence under a Zeiss microscope equipped with a FITC filter set (EX 485 nm/EM 530 nm).

[9] = 100 μM working medium for 24 hours

With `O=c1cc(CCl)c2ccc(O[C@@H]3O[C@H](CO)[C@H](O)[C@H](O)[C@H]3O)cc2o1` [Cl-MUG, 7-(β-D-galactopyranosyloxy)-4-chloromethylcoumarin] the “fluorescence of cells under microscope” value ([1]; 100 μM in working medium, 60 minutes at 37° C., washed with fresh medium) was “fluorescence is observed in the cytoplasmic area”, the “continuous incubation time at which fluorescence intensity reaches its highest level” value ([1]; 100 μM working medium) was 6 h and the “fluorescence of cells under microscope” value [2] was “not in 3T3 cells”. The cell morphology [3, 9] was “morphologically normal”, the “population doubling time versus cells in substrate-free medium” value [3, 9] was “same population doubling time” and the “time fluorescence can be detected in the cells following washing with fresh medium” value ([3]; after incubation in working medium) was “at least 24 hours”. The cytotoxicity ([3]; either type of cell) was “no cytotoxicity”, the subculture after preincubation ([3]; preincubated in working medium for 6 hours, subcultured in fresh medium) was “second generation of cells that is normal” and the “fluorescence of fixed cells” value [4] was “still brightly fluorescent”. The “fluorescence intensity after three hours in fresh culture medium” value (“fluorescence intensity after three hours” below) [5] was “brightly fluorescent”.

For `O=C1OC2(c3ccc(O)cc3Oc3cc(O)ccc32)c2ccc(CCl)cc21` [CMF, 5-chloromethylfluorescein], the “time at which enzymatic activity can be detected” value [6] was “less than 5 minutes”.

With `O=c1cc(C(F)(F)F)c2ccc(O[C@@H]3O[C@H](CO)[C@H](O)[C@H](O)[C@H]3O)cc2o1` [4-trifluoromethylcoumarin β-D-galactopyranoside] the “fluorescence intensity after three hours” value [5] was “low fluorescent intensity”.

In the case of `Cc1cc(=O)oc2cc(O[C@@H]3O[C@H](CO)[C@H](O)[C@H](O)[C@H]3O)ccc12` [MUG, 4-methylumbelliferyl β-D-galactoside, reference compound], the “fluorescence of fixed cells” value [4] is reported as “barely fluorescent” and the “fluorescence intensity after three hours” value [5] is reported as “low fluorescent intensity”.

In the case of `CC(C)CC(N)C(=O)Nc1ccc2c(c1)Oc1cc(NC(=O)C(N)CC(C)C)ccc1C21OC(=O)c2ccccc21` [bis-(L-leucine)-rhodamine 110, reference compound], the “leakage of enzyme reaction product after staining” value [7] is reported as “substantial leakage” and the “fluorescence after washing and several hours in fresh media” value [7] is reported as “no fluorescent signal”.

For `CC(C)CC(N)C(=O)Nc1ccc2c(c1)Oc1cc(NC(=O)c3ccc(CCl)cc3)ccc1C21OC(=O)c2ccccc21` [L-leucine-rhodamine 110-p-chloromethylbenzamide], the “leakage of enzyme reaction product after staining” value [7] was “significantly less leakage”, the “fluorescence after washing and several hours in fresh media” value [7] was “bright, well-defined staining pattern” and the melting point was 275 °C (dec.).

For `O=C1OC2(c3ccc(O[C@@H]4O[C@H](CO)[C@H](O)[C@H](O)[C@H]4O)cc3Oc3cc(O[C@@H]4O[C@H](CO)[C@H](O)[C@H](O)[C@H]4O)ccc32)c2ccccc21` [FDG, fluorescein di-β-D-galaetoside, reference compound], the “fluorescence of stained cells after 4 hours” value [8] was “very dim with high background fluorescence in the medium”.
